Values of other authors in patent publication US20160310552A1, “NORTHERN WHITE KIDNEY BEAN EXTRACT AND CERATONIA SILIQUA EXTRACT IN COMBINATION WITH GREEN TEA EXTRACT IN THE TREATMENT OF EXCESS WEIGHT AND OBESITY” (priority 2015, published 2016).

What was measured:
[1] = during a 12 month period
[2] = preliminary data; 10% with placebo

For CC(C)CC(N(C)C)C1(c2ccc(Cl)cc2)CCC1 (centres unmarked) [sibutramine], the Weight loss [1] is given as 5-10% and the “Subjects who died or had a heart attack, a stroke or cardiac arrest” value [2] is given as 11.4%.
